# From PubChem BioAssay AID1963444 (Molecular Pharmacology Branch, DTP, NCI, 2024)
# “And” between values parts separate entries of the source, which are not always exact repeats. Equal entries are not always repeated.
# Tested on: HSSY-II complex spheroid growth, percent test/control
# Assay: Anticancer human tumor HSSY-II cell line growth inhibition [Asc];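 further: spheroids exposed to drug for 7 days before reading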
# Conditions: for viability, T/C: stronger effect = lower value
# Protocol: Multicellular complex tumor spheroid response to apoptosis pathway targeting inhibitors Alrizomadlin, Pelcitoclax, and Dasminapant in combination with a variety of drugs and investigational agents in selected tumor cell lines
# The MDM2 inhibitor alrizomadlin, the Bcl-2/Bcl-xL inhibitor pelcitoclax, and the IAPs inhibitor dasminapant were evaluated both individually and in combination with standard of care and investigational anticancer small molecules within a complex spheroid model of solid tumors. . Complex spheroids include a stromal component modeled by human endothelial cells (HUVEC) and fibroblasts modeled by human mesenchymal stem cells (MSCs). The concentration ranges selected for each drug and investigational agent were based upon clinically achievable concentrations if the clinical Cmax of the agent was known.
# Compounds. The drugs and investigational agents: alrizomadlin (APG-115; NSC831270), pelcitoclax (APG-1252; NSC835773), dasminapant (APG-1387;NSC834197), TAK-243 (NSC785004), copanlisib (NSC809693), olaparib (NSC753686), talazoparib (NSC767125), cobimetinib (NSC 768068), eltanexor (KPT-8602, NSC 794443), abemaciclib (NSC 768073), sotorasib (NSC818433), adagrasib (NSC 831453), MRTX-1133 (NSC 836407), Iadademestat (ORY1001, NSC 806812), and RMC-4630 (NSC839698), were obtained from the NCI Developmental Therapeutics Program Chemical Repository. The FDA-approved anticancer drug set is available from the Developmental Therapeutics Program at https://dtp.cancer.gov/organization/dscb/obtaining/available plates.htm. […] The stock solutions were prepared in dimethyl sulfoxide (DMSO, Sigma-Aldrich, St. Louis, MO, cat. D2650) at 800-fold the tested concentration and stored at -70 degrees C prior to their use. All drugs and investigational agents were tested over a range starting from a high concentration at or near the clinical Cmax and decreasing in half-log increments. If the clinical Cmax for an agent had not been determined, the highest concentration tested was 10 microM.
# The patient-derived cancer (PDC) cell lines include five colon adenocarcinomas: 186277-243-T-J2-PDC, 616215-338-R-J1-PDC, 439559-082-T-J2-PDC, 463943-066-T-J2-PDC, and 519858-162-T-J1-PDC; three pancreatic carcinomas: 323965-272-R-J2-PDC, 521955-158-R6-J3-PDC, and 521955-158-R2-J5-PDC; two uterine sarcomas: 327498-152-R-J2-PDC and 993429-296-R-J1-PDC; two rhabdomyosarcomas: 755483-174-R-J1-PDC and 772245-204-R-J1-PDC; two soft tissue sarcomas: 126254-015-R-J1-PDC and 494315-158-R-J1-PDC; two malignant fibrous histiocytomas: 317291-083-R-J1-PDC and 596521-263-R-J1-PDC; two breast carcinomas: 171881-019-R-J1-PDC and 885512-296-R-J2-PDC; and one ovarian carcinoma: 6556581-035-R-J-PDC were obtained from the NCI PDMR, (https://pdmr.cancer.gov). The established cell lines HSSY-2 synovial sarcoma (RRID:CVCL 8719), SYO-1 synovial sarcoma (RRID:CVCL_7146), MPNST malignant peripheral neural sheath tumor were obtained from the Sloan Kettering Institute. The following established cell lines were purchased from the American Type Culture Collection (ATCC, Manassas, VA), Sor the received from the NCI repository:, PANC-1 pancreatic carcinoma (CRL-1469, RRID:CVCL_0480), OVCAR-5 ovarian carcinoma (RRID:CVCL_1628), OVCAR-8 ovarian carcinoma (RRID:CVCL_1629), , MCF-7 breast carcinoma (CRL-12584, RRID:CVCL_0031), MDA-MB-231 breast carcinoma (CRL-12532, RRID:CVCL_0062), NCI-H1876 small cell lung carcinoma (CRL-5902, RRID:CVCL_1503), NCI-H510A small cell lung carcinoma (HTB-184, RRID:CVCL_1565), NCI-H1417 (CRL-5869, RRID:CVCL_1469), and NCI-H196 small cell lung carcinoma (CRL-5823, RRID:CVCL_1509). Dr. Peter Houghton (Greehey Children's Cancer Research Institute, University of Texas Health Science Center, San Antonio, TX) provided Rh-18 rhabdomyosarcoma (RRID:CVCL_1659). Pooled donor human umbilical vein endothelial cells (HUVEC, Lonza, cat. CC-2519) and human mesenchymal stem cells (hMSC, Lonza, cat. PT-2501) were purchased from Lonza (Walkersville, MD).
# Cell Culture. […]
# [1] = compound alone, run of 10/11/2022
IC50 (curve of compound),SMILES,"viability, T/C (compound 0.0316 µM)","viability, T/C (compound 0.1 µM)","viability, T/C (compound 0.316 µM)","viability, T/C (compound 1 µM)","viability, T/C (compound 0.00316 µM)","viability, T/C (compound 0.01 µM)",further results
> 10 µM and 8.85 µM,C#Cc1c(F)ccc2cc(O)cc(-c3ncc4c(N5CC6CCC(C5)N6)nc(OCC56CCCN5CC(F)C6)nc4c3F)c12 (stereo unspecified),97.9% and 106% and 112%,101% and 94.9% and 106%,97.4% and 92.7% and 94%,105% and 102% and 90.2%,,,"viability, T/C (compound 3.16 µM): 91.3% and 93.7% and 92.3%; viability, T/C (compound 10 µM): 74.2% and 53.3% and 44.5%"
1.43 µM and 1.58 µM and 1.41 µM,C=C(F)C(=O)N1CCN(c2nc(OCC3CCCN3C)nc3c2CCN(c2cccc4cccc(Cl)c24)C3)CC1CC#N (stereo unspecified),102% and 104% and 97.2%,100% and 111% and 98.8%,89.8% and 89.1% and 90.5%,70.2% and 80.1% and 70%,,,"viability, T/C (compound 3.16 µM): 5.2% and 4.65% and 3.69%; viability, T/C (compound 10 µM): 0.22% and 0.2% and 0.21%"
> 10 µM,C=CC(=O)N1CCN(c2nc(=O)n(-c3c(C)ccnc3C(C)C)c3nc(-c4c(O)cccc4F)c(F)cc23)C(C)C1 (stereo unspecified),107% and 90.9% and 100%,108% and 97.8% and 106%,106% and 100% and 99.8%,106% and 105% and 102%,,,"viability, T/C (compound 3.16 µM): 95.8% and 106% and 103%; viability, T/C (compound 10 µM): 66.7% and 56.7% and 70.2%"
0.133 µM and 0.135 µM,CCN1C(C(=O)NC23CCC(C(=O)O)(CC2)CC3)C(c2cccc(Cl)c2F)C2(C(=O)Nc3cc(Cl)ccc32)C12CCCCC2 (stereo unspecified),,,,,,,"viability, T/C (compound 0.00949 µM): 99.7% and 101%; viability, T/C (compound 0.03 µM): 89.3% [middle of 15 runs]; viability, T/C (compound 0.0949 µM): 62.1% [middle of 15 runs]; viability, T/C (compound 0.3 µM): 27% [middle of 15 runs]; viability, T/C (compound 0.949 µM): 8.58% [middle of 15 runs]; viability, T/C (compound 3 µM): 2.55% [middle of 15 runs]; IC50 [1]: 143 nM [middle of 12 runs]"
0.201 µM and 0.0805 µM and 0.328 µM,CCN1CCN(Cc2ccc(Nc3ncc(F)c(-c4cc(F)c5nc(C)n(C(C)C)c5c4)n3)nc2)CC1,65.6% and 73.6% and 78.9%,59.6% and 44.7% and 74.7%,49.6% and 35.2% and 46.9%,27.2% and 30.8% and 28.5%,102% and 74.4% and 98.4%,94.4% and 70.5% and 78.7%,
> 1 µM,CNC(C)C(=O)NC1CN(S(=O)(=O)c2cccc(S(=O)(=O)N3CCC4CCC(C(=O)NC(c5ccccc5)c5ccccc5)N4C(=O)C(NC(=O)C(C)NC)C3)c2)CCC2CCC(C(=O)NC(c3ccccc3)c3ccccc3)N2C1=O (stereo unspecified),89.1% [middle of 14 runs],,,,102% and 96.8% and 85%,,"IC50 (compound alone, run of 10/24/2022): > 1 µM; IC50 (compound alone, run of 11/15/2022): > 1 µM"
0.0368 µM and 0.0531 µM and 0.0718 µM,COc1c(OCCCN2CCOCC2)ccc2c3n(c(=NC(=O)c4cnc(N)nc4)nc12)CCN3,49.7% and 56.5% and 61.6%,32.7% and 39.2% and 46.4%,23.3% and 23.6% and 26.9%,13.1% and 13.5% and 11.5%,91.6% and 98.3% and 96.8%,79.1% and 86.2% and 79.5%,
,Cc1c(S(C)(=O)=O)c(-c2cc(F)cc(N3CCN(c4ccc(NS(=O)(=O)c5ccc(NC(CCN6CCC(C(=O)OCCCP(=O)(O)O)CC6)CSc6ccccc6)c(S(=O)(=O)C(F)(F)F)c5)cc4)CC3)c2)c(-c2ccc(Cl)cc2)n1C(C)C (stereo unspecified),,,,,,,IC50 [1]: > 10 µM and 2.63 µM
> 3 µM,Cc1nc(N2CCC3(CC2)COC(C)C3N)c(CO)nc1Sc1ccnc(N)c1Cl (stereo unspecified),,,,,,,"viability, T/C (compound 0.00949 µM): 96.6% and 103% and 111%; viability, T/C (compound 0.03 µM): 96.7% and 113% and 106%; viability, T/C (compound 0.0949 µM): 96.6% and 108% and 102%; viability, T/C (compound 0.3 µM): 99.3% and 106% and 105%; viability, T/C (compound 0.949 µM): 91.7% (2×) and 88.5%; viability, T/C (compound 3 µM): 67.1% and 75.8% and 68.5%"
0.0388 µM and > 0.1 µM and 0.0426 µM,Cn1ncnc1[C@H]1c2n[nH]c(=O)c3cc(F)cc(c23)N[C@@H]1c1ccc(F)cc1,57.3% and 55.5% and 65.2%,25.6% and 69.3% and 22.8%,,,90.7% and 96% and 83.2%,70.8% and 84.3% and 72.3%,"viability, T/C (compound 0.000316 µM): 93.9% and 100% and 96.2%; viability, T/C (compound 0.001 µM): 94.1% and 95.6% and 96.7%"
0.0239 µM and 0.0166 µM and 0.0177 µM,NC(=O)C(=Cn1cnc(-c2cc(C(F)(F)F)cc(C(F)(F)F)c2)n1)c1cncnc1,,,,,,,"viability, T/C (compound 0.000949 µM): 97.2% and 85.3% and 90.9%; viability, T/C (compound 0.003 µM): 94.1% and 76.9% and 88.4%; viability, T/C (compound 0.00949 µM): 67.6% and 69.8% and 61.6%; viability, T/C (compound 0.03 µM): 46.4% and 29.8% and 40.1%; viability, T/C (compound 0.0949 µM): 18.6% and 11.1% and 9.98%; viability, T/C (compound 0.3 µM): 1.34% and 1.15% and 1.13%"
> 0.1 µM,NC1CCC(NC2CC2c2ccccc2)CC1 (stereo unspecified),61% and 59.4% and 54.2%,59.8% and 53.7% and 49.7%,,,58.7% and 61.8% and 52.4%,53.8% and 56.1% and 47%,"viability, T/C (compound 0.000316 µM): 71.8% and 62.3% and 60.2%; viability, T/C (compound 0.001 µM): 68.3% and 66.5% and 58.3%"
2.81 µM and 3.51 µM and 3.97 µM,O=C(c1cc(Cc2n[nH]c(=O)c3ccccc23)ccc1F)N1CCN(C(=O)C2CC2)CC1,87.4% and 98% and 105%,90.4% and 103% and 91.2%,86.4% and 63% and 94.2%,78.5% and 87.6% and 98.6%,,,"viability, T/C (compound 3.16 µM): 46.7% and 54.1% and 59.5%; viability, T/C (compound 10 µM): 15.5% and 12.1% and 11.8%"
0.522 µM and 0.567 µM and 0.59 µM,O=C(c1ccc(F)c(F)c1Nc1ccc(I)cc1F)N1CC(O)([C@@H]2CCCCN2)C1,83.1% and 103% and 102%,92.8% and 102% and 122%,73.6% and 74.8% and 78.3%,19.4% and 25.9% and 26%,97.1% and 106% and 100%,99.7% and 107% and 102%,
